Test results from patent US20240197694A1, “MODIFIED PROTEINS AND PROTEIN BINDERS” (Cullgen (Shanghai), Inc., priority 2021, published 2024).

Biological target: T1, DCAF1 (1058-1396) (Homo sapiens, UniProt Q9Y4B6)
T1 construct: a fragment of a DCAF1 protein that includes amino acid residues A1058 to E1396; His6 (N, cleaved yes); made in house; host or cells: Sf9 insect cells (Bac-to-Bac baculovirus, pFastBacHT vector)
Experiment: Surface plasmon resonance (SPR) binding assay, compound binding to DCAF1
Settings: immobilized DCAF1 (1058-1396), steady state affinity model, 25° C.
Protocol: Binding affinities of specific exemplary compounds to DCAF1 (1058-1396), which is a fragment of a DCAF1 protein that includes amino acid residues A1058 to E1396 were determined by a surface plasmon resonance (SPR) assay. Briefly, purified DCAF1 (1058-1396) proteins were immobilized at a density of 9,000-11,000 resonance units (RUs) on a CMS sensor chip. Sensorgrams were recorded at different concentrations of compounds in multi-cycle kinetic format. Data were analyzed using a steady state affinity model through Biacore Evaluation Software to provide equivalent dissociation constants (Kd).
Binding affinities of compounds to DCAF1 were determined by a surface plasmon resonance (SPR) assay. Purified DCAF1 (1058-1396) proteins were immobilized on a CMS sensor chip, and a dose range of compound solutions were injected in multi-cycle kinetic format. Data were analyzed using a steady state model to provide equivalent dissociation constants (Kd).
Protein Expression and Purification: Human DCAF1 (1058-1396) (UniPro: Q9Y4B6) coding sequences were cloned into pFastBacHT vector and were expressed in Sf9 cells using Bac-to-Bac baculovirus expression system (Thermo Fisher Scientific). The expression construct for DCAF1 (1058-1396) included a N-terminal His6-tag to facilitate the purification. DCAF1 (1058-1396) proteins were obtained from supernatants of cell lysates and purified through sequential application of Ni affinity chromatography (Ni-NTA column, Bio-Rad), Tag removal using TEV protease, and size-exclusion chromatography (Superdex 200 column, GE Healthcare).
Surface plasmon resonance (SPR) binding assays: SPR studies were performed on a Biacore X100 plus or T200 instrument (GE Healthcare). Immobilization of purified DCAF1 (1058-1396) was carried out at 25° C. using a CMS sensor chip. The surface was pre-equilibrated in HBS-EP running buffer (10 mM HEPES, pH 7.4, 150 mM NaCl, 3 mM EDTA, 0.05% P20), before being activated with EDC/NHS. DCAF1 (1058-1396) was immobilized through amino groups to a density of 9,000-12,000 resonance units (RUs) on flow cell channel 2 (FC2), whereas flow cell channel 1 (FC1) was used as reference. Both DCAF1 immobilized and reference surfaces were deactivated with 1 M ethanolamine.
Interaction experiments were performed at 25° C. The compounds were prepared and serially diluted in HBS-EP running buffer containing final 2% DMSO (6-point two-fold serial dilution, 100 μM -3.125 μM final concentration of compounds). Compound Solutions were injected individually in multi-cycle kinetic format without regeneration (flow rate 30 μL/min, association time 60 s, dissociation time 60 s). Sensorgrams from reference surfaces and blank injections were subtracted from the raw data (double-referenced) and the data was solvent-corrected prior to analysis. Data were analyzed using a steady state affinity model through Biacore Evaluation Software to provide equivalent dissociation constants (Kd).

T1 sequence (Q9Y4B6 1058-1396): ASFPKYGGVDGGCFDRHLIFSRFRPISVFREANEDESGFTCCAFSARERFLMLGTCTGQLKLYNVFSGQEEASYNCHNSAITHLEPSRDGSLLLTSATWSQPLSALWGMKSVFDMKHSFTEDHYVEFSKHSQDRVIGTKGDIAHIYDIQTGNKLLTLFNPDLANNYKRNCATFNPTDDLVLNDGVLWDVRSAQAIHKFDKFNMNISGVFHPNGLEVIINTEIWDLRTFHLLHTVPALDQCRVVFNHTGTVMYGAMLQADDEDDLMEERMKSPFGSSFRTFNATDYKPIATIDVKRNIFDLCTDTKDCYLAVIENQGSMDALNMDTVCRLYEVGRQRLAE

`CN1CCc2c(c3ccccc3n2-c2ccccc2)C1` [CPD-057, 2-methyl-5-phenyl-2,3,4,5-tetrahydro-1H-pyrido[4,3-b]indole] gave a Kd of over 100 µM.
With `Cc1ccc2c(c1)C1CN(C)CCC1N2C(=O)/C=C/c1ccc(S(=O)(=O)N2CCOCC2)cc1` (stereo not drawn) [CPD-087, (E)-1-(2,8-dimethyl-1,2,3,4,4a,9b-hexahydro-5H-pyrido [4,3-b]indol-5-yl)-3-(4-(morpholinosulfonyl)phenyl)prop-2-en-1-one] the Kd was 40 to 70 µM.
Compound `CN1CCc2c(c3ccccc3n2CCC(N)=O)C1` [CPD-060, 3-(2-methyl-1,2,3,4-tetrahydro-5H-pyrido[4,3-b]indol-5-yl)propanamide] has a Kd of 70 to 100 µM.
Compound `Cc1ccc2c(c1)c1c(n2C)CCN(C)C1` [CPD-022, 2,5,8-trimethyl-2,3,4,5-tetrahydro-1H-pyrido[4,3-b]indole] has a Kd of over 100 µM.
In the case of `Cc1ccc2c(c1)C1CN(C)CCC1N2C(=O)c1cc2c(C)nn(-c3ccc(Cl)cc3)c2s1` (stereo not drawn) [CPD-074, (1-(4-chlorophenyl)-3-methyl-1H-thieno[2,3-c]pyrazol-5-yl)(2,8-dimethyl-1,2,3,4,4a,9b-hexahydro-5H-pyrido[4,3-b]indol-5-yl)methanone], the Kd is reported as over 100 µM.
With `Cc1ccc2c(c1)C1CN(C)CCC1N2C(=O)c1cc(C#N)oc1C` (stereo not drawn) [CPD-072, 4-(2,8-dimethyl-2,3,4,4a,5,9b-hexahydro-1H-pyrido[4,3-b]indole-5-carbonyl)-5-methylfuran-2-carbonitrile] the Kd was over 100 µM.
`Cc1ccc2c(c1)[C@@H]1CN(C)CC[C@H]1N2C(=O)/C=C/c1nccs1` (racemic) [CPD-035, (E)-1-(trans-2,8-dimethyl-1,2,3,4,4a,9b-hexahydro-5H-pyrido [4,3-b]indol-5-yl)-3-(thiazol-2-yl)prop-2-en-1-one] showed a Kd of over 100 µM.
`Cc1ccc2[nH]c3c(c2c1)CN(CC1(CC(=O)O)CC1)CC3` [CPD-055, 2-(1-((8-methyl-1,3,4,5-tetrahydro-2H-pyrido[4,3-b]indol-2-yl)methyl)cyclopropyl) acetic acid] showed a Kd of over 100 µM.
`CNC(=O)NC(=O)CCN1CCc2[nH]c3ccc(Cl)cc3c2C1` [CPD-050, 3-(8-chloro-1,3,4,5-tetrahydro-2H-pyrido[4,3-b]indol-2-yl)-N-(methylcarbamoyl)propanamide] showed a Kd of 70 to 100 µM.
With `COc1cc(C)ccc1C(=O)N1c2ccc(C)cc2C2CN(C)CCC21` (stereo not drawn) [CPD-067, (2,8-dimethyl-1,2,3,4,4a,9b-hexahydro-5H-pyrido[4,3-b]indol-5-yl)(2-methoxy-4-methylphenyl)methanone] the Kd was over 100 µM.
`Cc1ccc2c(c1)[C@H]1CN(C)CC[C@H]1N2C(=O)/C=C/c1nccs1` (racemic) [CPD-037, (E)-1-(cis-2,8-dimethyl-1,2,3,4,4a,9b-hexahydro-5H-pyrido [4,3-b]indol-5-yl)-3-(thiazol-2-yl)prop-2-en-1-one] gave a Kd of over 100 µM.
Work on `COc1nccc(C(=O)N2c3ccc(C)cc3C3CN(C)CCC32)n1` (stereo not drawn) [CPD-063, (2,8-dimethyl-1,2,3,4,4a,9b-hexahydro-5H-pyrido[4,3-b]indol-5-yl)(2-methoxypyrimidin-4-yl)methanone] yielded a Kd of over 100 µM.
Compound `Cc1ccc2c(c1)C1CN(C)CCC1N2C(=O)c1cc2c(s1)CCCC2` (stereo not drawn) [CPD-073, (2,8-dimethyl-1,2,3,4,4a,9b-hexahydro-5H-pyrido[4,3-b]indol-5-yl)(4,5,6,7-tetrahydrobenzo[b]thiophen-2-yl)methanone] has a Kd of over 100 µM.
`Cc1cccc2c1[C@H]1CN(C)CC[C@H]1N2C` (racemic) [CPD-042, cis-2,5,9-trimethyl-2,3,4,4a,5,9b-hexahydro-1H-pyrido[4,3-b]indole] was tested, and the Kd was over 100 µM.
`O=C(CCN1CCc2[nH]c3ccccc3c2C1)N1CCOCC1` [CPD-048, 1-morpholino-3-(1,3,4,5-tetrahydro-2H-pyrido[4,3-b]indol-2-yl)propan-1-one] was tested, and the Kd was at most 40 µM.
`Cc1ccc(CNCc2cnc[nH]2)o1` [CPD-024, N-((1H-imidazol-5-yl)methyl)-1-(5-methylfuran-2-yl) methanamine] gave a Kd of over 100 µM.
`COc1ccc(/C=C/C(=O)N2c3ccc(C)cc3C3CN(C)CCC32)cc1` (stereo not drawn) [CPD-085, (E)-1-(2,8-dimethyl-1,2,3,4,4a,9b-hexahydro-5H-pyrido [4,3-b]indol-5-yl)-3-(4-methoxyphenyl)prop-2-en-1-one] was tested, and the Kd was over 100 µM.
`CN1Cc2ccccc2CC1CNC(=O)c1cncc(O)n1` (stereo not drawn) [CPD-015, 6-hydroxy-N-((2-methyl-1,2,3,4-tetrahydroisoquinolin-3-yl)methyl)pyrazine-2-carboxamide] showed a Kd of over 100 µM.
Compound `COc1cc(C(=O)N2c3ccc(C)cc3C3CN(C)CCC32)ncn1` (stereo not drawn) [CPD-064, (2,8-dimethyl-1,2,3,4,4a,9b-hexahydro-5H-pyrido [4,3-b]indol-5-yl)(6-methoxypyrimidin-4-yl)methanone] has a Kd of over 100 µM.
Compound `CN(C)C(=O)c1ccc(NCC2Cc3ccccc3CN2C)nc1` (stereo not drawn) [CPD-089, N,N-dimethyl-6-(((2-methyl-1,2,3,4-tetrahydroisoquinolin-3-yl)methyl)amino)nicotinamide] has a Kd of 70 to 100 µM.
`COc1cccc2c3c([nH]c12)CCN(C)C3` [CPD-047, 6-methoxy-2-methyl-2,3,4,5-tetrahydro-1H-pyrido[4,3-b]indole] gave a Kd of over 100 µM.
With `Cc1ccc2c(c1)[C@H]1CN(C)CC[C@H]1N2` (racemic) [CPD-033, cis-2,8-dimethyl-2,3,4,4a,5,9b-hexahydro-1H-pyrido[4,3-b]indole] the Kd was over 100 µM.
Compound `Cc1ccc2c(c1)C1CN(C)CCC1N2C(=O)C[C@@H](n1cccn1)C(F)(F)F` (stereo partly drawn) [CPD-080, (R)-1-(2,8-dimethyl-1,2,3,4,4a,9b-hexahydro-5H-pyrido [4,3-b]indol-5-yl)-4,4,4-trifluoro-3-(1H-pyrazol-1-yl)butan-1-one] has a Kd of over 100 µM.
For `CN1Cc2ccccc2CC1CNc1nccc(-c2ccncc2)n1` (stereo not drawn) [CPD-090, N-((2-methyl-1,2,3,4-tetrahydroisoquinolin-3-yl)methyl)-4-(pyridin-4-yl)pyrimidin-2-amine], the Kd was 40 to 70 µM.
Work on `Cc1ccc2[nH]c3c(c2c1)C[N+](C)(C)CC3` [CPD-021, 2,2,8-trimethyl-2,3,4,5-tetrahydro-1H-2λ^4-pyrido[4,3-b]indol-3-ylium] yielded a Kd of over 100 µM.
Work on `NCCOCCOCCOCCn1c2c(c3cc(F)ccc31)CN(CCc1cnn[nH]1)CC2` [CPD-016, 2-(2-(2-(2-(2-(2-(1H-1,2,3-triazol-5-yl)ethyl)-8-fluoro-1,2,3,4-tetrahydro-5H-pyrido[4,3-b]indol-5-yl)ethoxy)ethoxy)ethoxy)ethan-1-amine] yielded a Kd of 40 to 70 µM.
For `CN1CCc2c(c3ccccc3n2Cc2ccccc2)C1` [CPD-058, 5-benzyl-2-methyl-2,3,4,5-tetrahydro-1H-pyrido[4,3-b]indole], the Kd was 70 to 100 µM.
For `c1ccc2c3c([nH]c2c1)CCN(CCc1ccncc1)C3` [CPD-045, 2-(2-(pyridin-4-yl)ethyl)-2,3,4,5-tetrahydro-1H-pyrido[4,3-b]indole], the Kd was 40 to 70 µM.
With `CN1Cc2ccccc2CC1CNC(=O)c1nc(=N)[nH]c2c1CCCC2` (stereo not drawn) [CPD-092, 2-imino-N-((2-methyl-1,2,3,4-tetrahydroisoquinolin-3-yl)methyl)-1,2,5,6,7,8-hexahydroquinazoline-4-carboxamide] the Kd was 40 to 70 µM.
For `NCCCCCCn1c2c(c3cc(F)ccc31)CN(CCc1cnn[nH]1)CC2` [CPD-014, 6-(2-(2-(1H-1,2,3-triazol-5-yl)ethyl)-8-fluoro-1,2,3,4-tetrahydro-5H-pyrido[4,3-b]indol-5-yl)hexan-1-amine], the Kd was 40 to 70 µM.
